Columns and labels:
piemarker = assay: Determination of herbicidal activity, post-emergence stem and leaf spray, piemarker; format: in vivo; conditions: for Herbicidal activity for Piemarker, control effect %: Table 4 parallel comparison; for pest or weed control at 150 g/ha: post-emergence, read-out: control effects on piemarker; for pest or weed control at 150 g/ha / control effects on piemarker: 150 g a.i./hm^2, after emergence, visual 0-100%
Experimental: (§1) Seeds of broadleaf weeds (zinnia and piemarker) or grassy weeds (green bristlegrass and barnyard grass) were respectively sown in a paper cup having a diameter of 7 cm and containing nutrient soil; after sowing, the seeds were covered with 1 cm of soil; the soil was pressed and watered, and then the seeds were cultivated in a greenhouse according to a conventional method; and stems and leaves were sprayed after 2-3 leaf stage of the weeds.
(§2) After the original medicinal acetone was dissolved, the test requires to use 1‰ of Tween 80 to stand in running water to prepare the solution to be tested with a required concentration. According to the design dose of the test, spray treatment was carried out on a track-type crop sprayer (designed and produced by British Engineer Research Ltd.) (spray pressure is 1.95 kg/cm^2, spray volume is 500 L/hm^2 and track speed is 1.48 km/h). The test was repeated for three times. The test material was treated and then placed in an operation hall. The medicinal liquid was naturally dried in the shade, and then was placed in a greenhouse and managed according to the conventional method. The response of the weeds to the drug was observed and recorded. After treatment, the control effects of the test drug on the weeds were visually inspected regularly, expressed by 0-100%. “0” represents no control effect and “100%” represents complete killing.

barnyard grass = assay: Determination of herbicidal activity, post-emergence stem and leaf spray, barnyard grass; format: in vivo; conditions: for Herbicidal activity for Barnyard Grass, control effect %: Table 6 parallel comparison
Experimental: as §1, §2

zinnia = assay: Determination of herbicidal activity, post-emergence stem and leaf spray, zinnia; format: in vivo; conditions: for control effects on zinnia: 150 g a.i./hm^2, after emergence, visual 0-100%; for Herbicidal activity for Zinnia, control effect %: Table 3 parallel comparison
Experimental: as §1, §2

green bristlegrass = assay: Determination of herbicidal activity, post-emergence stem and leaf spray, green bristlegrass; format: in vivo; conditions: for Herbicidal activity for Green Bristlegrass, control effect %: Table 5 parallel comparison
Experimental: as §1, §2

Setaria faberi = conditions: postemergence application, doses of 7.81 and 3.91 g/ha; cited from earlier work
Chenopodium album L. = conditions: postemergence application, doses of 7.81 and 3.91 g/ha; cited from earlier work
[1] = tested on: Commelina benghalensis Linn.; conditions: postemergence application, doses of 7.81 and 3.91 g/ha; cited from earlier work
Amaranthus retroflexus = conditions: postemergence application, doses of 7.81 and 3.91 g/ha; cited from earlier work
[2] = Table 2, 9.375 g a.i./hm^2, after emergence
[3] = Table 2, 37.5 g a.i./hm^2, after emergence
[4] = 2.34 g a.i./hm^2, after emergence
[5] = 9.375 g a.i./hm^2, after emergence
[6] = 37.5 g a.i./hm^2, after emergence

CCOC(=O)C(C)OC(=O)c1cc(-n2c(=O)n(C)c(=S)n(C)c2=O)c(F)cc1Cl (racemic) [Compound 248, 2-chloro-4-fluoro-5-(3,5-dimethyl-2,6-dioxo-4-thio-1,3,5-triazine-1-yl) benzoic acid (1-ethoxycarbonyl)ethyl ester]
Piemarker, control effect % (piemarker; [2]): 90%
Piemarker, control effect % (piemarker; [3]): 100%
Herbicidal activity for Piemarker, control effect % (piemarker; [4]): 90%
Herbicidal activity for Piemarker, control effect % (piemarker; [5]): 100%
pest or weed control at 150 g/ha (piemarker): 100%
Barnyard Grass, control effect % (barnyard grass; [2]): 95%
Barnyard Grass, control effect % (barnyard grass; [3]): 100%
Herbicidal activity for Barnyard Grass, control effect % (barnyard grass; [5]): 90%
Herbicidal activity for Barnyard Grass, control effect % (barnyard grass; [6]): 100%
control effects on zinnia (zinnia): 100%
Zinnia, control effect % (zinnia; [2]): 60%
Zinnia, control effect % (zinnia; [3]): 90%
Herbicidal activity for Zinnia, control effect % (zinnia; [4]): 95%
Herbicidal activity for Zinnia, control effect % (zinnia; [5]): 100%
Green Bristlegrass, control effect % (green bristlegrass; [2]): 70%
Green Bristlegrass, control effect % (green bristlegrass; [3]): 95%
Herbicidal activity for Green Bristlegrass, control effect % (green bristlegrass; [5]): 60%
Herbicidal activity for Green Bristlegrass, control effect % (green bristlegrass; [6]): 85%

Cn1c(=S)n(C)c(=O)n(-c2cc(C(=O)OCC(=O)OCCCl)c(Cl)cc2F)c1=O [Compound 221]
control effects on piemarker (piemarker): 100%
Herbicidal activity for Piemarker, control effect % (piemarker; [4]): 85%
Herbicidal activity for Piemarker, control effect % (piemarker; [5]): 100%
Herbicidal activity for Barnyard Grass, control effect % (barnyard grass; [5]): 98%
Herbicidal activity for Barnyard Grass, control effect % (barnyard grass; [6]): 100%
control effects on zinnia (zinnia): 100%
Herbicidal activity for Zinnia, control effect % (zinnia; [4]): 85%
Herbicidal activity for Zinnia, control effect % (zinnia; [5]): 100%
Herbicidal activity for Green Bristlegrass, control effect % (green bristlegrass; [5]): 80%
Herbicidal activity for Green Bristlegrass, control effect % (green bristlegrass; [6]): 90%

Cn1c(=S)n(C)c(=O)n(-c2cc(C(=O)OCC(=O)OCCCCCl)c(Cl)cc2F)c1=O [Compound 225]
control effects on piemarker (piemarker): 100%
Herbicidal activity for Piemarker, control effect % (piemarker; [4]): 85%
Herbicidal activity for Piemarker, control effect % (piemarker; [5]): 100%
Herbicidal activity for Barnyard Grass, control effect % (barnyard grass; [5]): 95%
Herbicidal activity for Barnyard Grass, control effect % (barnyard grass; [6]): 100%
control effects on zinnia (zinnia): 100%
Herbicidal activity for Zinnia, control effect % (zinnia; [4]): 95%
Herbicidal activity for Zinnia, control effect % (zinnia; [5]): 100%
Herbicidal activity for Green Bristlegrass, control effect % (green bristlegrass; [5]): 80%
Herbicidal activity for Green Bristlegrass, control effect % (green bristlegrass; [6]): 90%

Cn1c(=S)n(C)c(=O)n(-c2cc(C(=O)OCC(=O)OCC3CC3)c(Cl)cc2F)c1=O [Compound 241, 2-chloro-4-fluoro-5-(3,5-dimethyl-2,6-dioxo-4-thio-1,3,5-triazine-1-yl)benzoic acid (cyclopropylmethoxycarbonyl) methyl ester]
Herbicidal activity for Piemarker, control effect % (piemarker; [4]): 98%
Herbicidal activity for Piemarker, control effect % (piemarker; [5]): 100%
pest or weed control at 150 g/ha (piemarker): 100%
Herbicidal activity for Barnyard Grass, control effect % (barnyard grass; [5]): 95%
Herbicidal activity for Barnyard Grass, control effect % (barnyard grass; [6]): 98%
control effects on zinnia (zinnia): 100%
Herbicidal activity for Zinnia, control effect % (zinnia; [4]): 100%
Herbicidal activity for Zinnia, control effect % (zinnia; [5]): 100%
Herbicidal activity for Green Bristlegrass, control effect % (green bristlegrass; [5]): 80%
Herbicidal activity for Green Bristlegrass, control effect % (green bristlegrass; [6]): 100%

Cn1c(=S)n(C)c(=O)n(-c2cc(C(=O)OCC(=O)OCC3CO3)c(Cl)cc2F)c1=O (centres unmarked) [Compound 245]
control effects on piemarker (piemarker): 100%
Herbicidal activity for Barnyard Grass, control effect % (barnyard grass; [5]): 95%
Herbicidal activity for Barnyard Grass, control effect % (barnyard grass; [6]): 98%
control effects on zinnia (zinnia): 100%
Herbicidal activity for Zinnia, control effect % (zinnia; [4]): 95%
Herbicidal activity for Zinnia, control effect % (zinnia; [5]): 100%
Herbicidal activity for Green Bristlegrass, control effect % (green bristlegrass; [5]): 70%
Herbicidal activity for Green Bristlegrass, control effect % (green bristlegrass; [6]): 90%

Cn1c(=S)n(C)c(=O)n(-c2cc(C(=O)OCC(=O)OCC3CCCO3)c(Cl)cc2F)c1=O (centres unmarked) [Compound 246]
control effects on piemarker (piemarker): 100%
Herbicidal activity for Barnyard Grass, control effect % (barnyard grass; [5]): 95%
Herbicidal activity for Barnyard Grass, control effect % (barnyard grass; [6]): 98%
control effects on zinnia (zinnia): 100%
Herbicidal activity for Zinnia, control effect % (zinnia; [4]): 95%
Herbicidal activity for Zinnia, control effect % (zinnia; [5]): 95%
Herbicidal activity for Green Bristlegrass, control effect % (green bristlegrass; [5]): 80%
Herbicidal activity for Green Bristlegrass, control effect % (green bristlegrass; [6]): 90%

CCOC(=O)[C@@H](C)OC(=O)c1cc(-n2c(=O)n(C)c(=S)n(C)c2=O)c(F)cc1Cl [Compound 249]
control effects on piemarker (piemarker): 100%
Piemarker, control effect % (piemarker; [2]): 65%
Piemarker, control effect % (piemarker; [3]): 100%
Barnyard Grass, control effect % (barnyard grass; [2]): 30%
Barnyard Grass, control effect % (barnyard grass; [3]): 55%
control effects on zinnia (zinnia): 100%
Zinnia, control effect % (zinnia; [2]): 50%
Zinnia, control effect % (zinnia; [3]): 70%
Green Bristlegrass, control effect % (green bristlegrass; [2]): 35%
Green Bristlegrass, control effect % (green bristlegrass; [3]): 80%

CCOC(=O)[C@H](C)OC(=O)c1cc(-n2c(=O)n(C)c(=S)n(C)c2=O)c(F)cc1Cl [Compound 250]
control effects on piemarker (piemarker): 100%
Piemarker, control effect % (piemarker; [2]): 98%
Piemarker, control effect % (piemarker; [3]): 100%
Herbicidal activity for Piemarker, control effect % (piemarker; [4]): 85%
Herbicidal activity for Piemarker, control effect % (piemarker; [5]): 100%
Barnyard Grass, control effect % (barnyard grass; [2]): 50%
Barnyard Grass, control effect % (barnyard grass; [3]): 90%
Herbicidal activity for Barnyard Grass, control effect % (barnyard grass; [5]): 90%
Herbicidal activity for Barnyard Grass, control effect % (barnyard grass; [6]): 100%
control effects on zinnia (zinnia): 100%
Zinnia, control effect % (zinnia; [2]): 70%
Zinnia, control effect % (zinnia; [3]): 98%
Herbicidal activity for Zinnia, control effect % (zinnia; [4]): 80%
Herbicidal activity for Zinnia, control effect % (zinnia; [5]): 95%
Green Bristlegrass, control effect % (green bristlegrass; [2]): 100%
Green Bristlegrass, control effect % (green bristlegrass; [3]): 100%
Herbicidal activity for Green Bristlegrass, control effect % (green bristlegrass; [5]): 70%
Herbicidal activity for Green Bristlegrass, control effect % (green bristlegrass; [6]): 90%

CC#CCOC(=O)C(C)OC(=O)c1cc(-n2c(=O)n(C)c(=S)n(C)c2=O)c(F)cc1Cl (centres unmarked) [Compound 287]
control effects on piemarker (piemarker): 100%
control effects on zinnia (zinnia): 100%
Herbicidal activity for Zinnia, control effect % (zinnia; [4]): 80%
Herbicidal activity for Zinnia, control effect % (zinnia; [5]): 100%
Herbicidal activity for Green Bristlegrass, control effect % (green bristlegrass; [5]): 50%
Herbicidal activity for Green Bristlegrass, control effect % (green bristlegrass; [6]): 70%

CC(OC(=O)c1cc(-n2c(=O)n(C)c(=S)n(C)c2=O)c(F)cc1Cl)C(=O)OCC1CC1 (centres unmarked) [Compound 291]
control effects on piemarker (piemarker): 100%
Herbicidal activity for Piemarker, control effect % (piemarker; [4]): 85%
Herbicidal activity for Piemarker, control effect % (piemarker; [5]): 100%
Herbicidal activity for Barnyard Grass, control effect % (barnyard grass; [5]): 90%
Herbicidal activity for Barnyard Grass, control effect % (barnyard grass; [6]): 100%
control effects on zinnia (zinnia): 100%
Herbicidal activity for Zinnia, control effect % (zinnia; [4]): 85%
Herbicidal activity for Zinnia, control effect % (zinnia; [5]): 100%

C=CCOC(=O)c1cc(-n2c(=O)n(C)c(=S)n(C)c2=O)c(F)cc1Cl [KC1, reference compound]
control of Setaria faberi (Setaria faberi): effectively control
control of Chenopodium album L. (Chenopodium album L.): effectively control
Piemarker, control effect % (piemarker; [2]): 55%
Piemarker, control effect % (piemarker; [3]): 100%
Herbicidal activity for Piemarker, control effect % (piemarker; [5]): 55%
Barnyard Grass, control effect % (barnyard grass; [2]): 0%
Barnyard Grass, control effect % (barnyard grass; [3]): 25%
Herbicidal activity for Barnyard Grass, control effect % (barnyard grass; [5]): 0%
Herbicidal activity for Barnyard Grass, control effect % (barnyard grass; [6]): 25%
Zinnia, control effect % (zinnia; [2]): 50%
Zinnia, control effect % (zinnia; [3]): 60%
Herbicidal activity for Zinnia, control effect % (zinnia; [5]): 50%
control of Commelina benghalensis Linn. [1]: effectively control
Green Bristlegrass, control effect % (green bristlegrass; [2]): 10%
Green Bristlegrass, control effect % (green bristlegrass; [3]): 25%
Herbicidal activity for Green Bristlegrass, control effect % (green bristlegrass; [5]): 10%
Herbicidal activity for Green Bristlegrass, control effect % (green bristlegrass; [6]): 25%
control of Amaranthus retroflexus (Amaranthus retroflexus): effectively control

C=CCOC(=O)[C@@H](C)Oc1cc(-n2c(=O)n(C)c(=S)n(C)c2=O)c(F)cc1Cl [KC2, reference compound]
Herbicidal activity for Barnyard Grass, control effect % (barnyard grass; [5]): 75%
Herbicidal activity for Barnyard Grass, control effect % (barnyard grass; [6]): 90%
Herbicidal activity for Green Bristlegrass, control effect % (green bristlegrass; [5]): 20%
Herbicidal activity for Green Bristlegrass, control effect % (green bristlegrass; [6]): 50%
